According to publication PMC3196589, “Fluorescent Peptide Biosensor for Probing the Relative Abundance of Cyclin-Dependent Kinases in Living Cells” (PLoS ONE, 2011):
No end group written: not given here.

Key:
Assay in all cases: Live-cell ratiometric quantification of CDKSENS-Cy3/Ctrl-Cy5 fluorescence
Assay type in all cases: cell-based
[1] = test system: CDK/Cyclins in HeLa cells
Experimental: (§1) Cell culture media, serum and antibiotics were purchased from Invitrogen. HeLa, HS68, A549, MCF-7 and U2OS cells were obtained from ATCC and were cultured in Dulbecco's Modified Eagle Medium (DMEM)+Glutamax supplemented with 10% Fetal Calf Serum (FCS), 1 mM penicillin and 1 mM streptomycin at 37°C in an atmosphere containing 5% CO2. HT2-19 cells, provided by Dr. A.Porter, were cultured in DMEM supplemented with non essential amino acids, antibiotics, sodium pyruvate, glutamine, and 10% FCS and grown with 50 uM isopropyl-thiogalactoside (IPTG) for maximal induction of CDK1 [28]. Cell extracts were prepared in lysis buffer containing 50 mM TrisHCl, pH 7.4, 150 mM NaCl, 0.1% NP40, 0.1% Deoxycholate, 2 mM EDTA, 1 mM phenylmethlsulfonyl fluoride (PMSF), CompleteTM protease inhibitors (Roche), 50 mM NaF, 40 mM β-Glycero-phosphate, 1 mM Na3VO4 and normalized following spectrophotometric dosage at 280 nm. […] Samples were then processed for SDS-PAGE and CDK, Cyclin retention was detected by Western blotting.
(§2) For fixed observations, cells were treated for 20 minutes with paraformaldehyde, nuclei were stained with Hoechst 33342 (Sigma), and cells were mounted with Prolong Gold AntiFade Reagent (Invitrogen). Epifluorescence images were acquired on a Leica DM6000 microscope (Leica Microsystems) piloted by the Metamorph software (Universal Imaging). For colocalization experiments, images were acquired on a Zeiss axioplan2/LSM510 META confocal microscope. Live-cell imaging was performed on a Zeiss Axiovert 200 M piloted by the Metamorph software. Images were processed with ImageJ software.
(§3) CDKSENS-Cy3 and Ctrl-Cy5 were complexed individually with CADY2 and codelivered into cells. Live-cell imaging acquisitions were substracted for background signal corresponding to minimal fluorescence levels using Metamorph. Image J was then used for image analysis. Regions of interest (ROI) corresponding to 10–15 cells in which fluorescence appeared homogeneous were designed and the mean grey levels of fluorescence for each channel (Cy3 and Cy5) were quantified within these ROIs. For each experiment, and the mean ratiometric value of CDKSENS-Cy3/Ctrl-Cy5 was calculated from 3–4 different ROIs. Each experiment was performed 3–4 times to assess the robustness of the quantification strategy. All statistical analyses are presented by the mean and standard deviation.

[2] = test system: CDK/Cyclins in MCF7 cells
Experimental: as §1, §2, §3

[3] = test system: CDK/Cyclins in HT2-19 cells; details: for Mean Ratio CDKSENS-Cy3/Ctrl-Cy5: mean +/- SD of 3 fields
Experimental: as §1, §2, §3

CDKSENS-Cy3: CDKSENS labelled with cyanine probe Cy3 (C(Cy3 maleimide)DKSENS)
Mean Ratio CDKSENS-Cy3/Ctrl-Cy5 ([1]; HeLa (A549 experiment), mean +/- SD of 3 fields): 6,72+/−0,37
Relative Mean Ratiometric Value ([1]; HeLa (A549 experiment), normalized to highest mean): 1+/−0,054
Relative Mean Ratiometric Value ([1]; HeLa (HS68 experiment), normalized to highest mean): 1+/−0,039
Mean Ratio CDKSENS-Cy3/Ctrl-Cy5 ([1]; HeLa (MCF7 experiment), mean +/- SD of 4 fields): 7,29+/−0,39
Relative Mean Ratiometric Value ([1]; HeLa (MCF7 experiment), normalized to highest mean): 1+/−0,053
Relative Mean Ratiometric Value ([1]; HeLa (U20S experiment), HeLa set to 1): 1+/−0,079
Mean Ratio CDKSENS-Cy3/Ctrl-Cy5 ([1]; HeLa (U20S experiment), mean +/- SD of 4 fields): 6,79+/−0,53
Mean Ratio CDKSENS-Cy3/Ctrl-Cy5 ([2]; MCF7, mean +/- SD of 4 fields): 5,99+/−0,33
Relative Mean Ratiometric Value ([2]; MCF7, normalized to HeLa mean): 0.82+/−0,046
decrease of CDKSENS-Cy3/Ctrl-Cy5 values, MCF7 vs HeLa ([2]; MCF7 compared to HeLa, range stated jointly for A549 and MCF7): 18–20%
decrease of CDKSENS-Cy3/Ctrl-Cy5 ratio without IPTG ([3]; HT2-19, 4 days without IPTG vs 50 uM IPTG): 20%
Mean Ratio CDKSENS-Cy3/Ctrl-Cy5 ([3]; HT219+IPTG): 5,37+/−0,18
Relative Mean Ratiometric Value ([3]; HT219+IPTG, normalized to highest mean): 1+/−0,033
Mean Ratio CDKSENS-Cy3/Ctrl-Cy5 ([3]; HT219 WO IPTG): 4,36+/−0,21
